Consider six molecules from patent US20140127158A1, “COMBINATION THERAPY FOR HEPATITIS C VIRUS INFECTION” (National Health Research Institute, priority 2012, published 2014).

Data set [1] relates to HCV genotype 1b replicon (Con1). As to the kind of experiment: Inhibitory assay for HCV replicons (luciferase), genotype 1b Con1. It is filed as cell-based, Hepatitis C virus. The note with it: HCV-1b replicon cell lines, single agent. The procedure: (2) Cell culture and HCV inhibitors. Huh-7.5 cells and their derivative HCV replicon cell lines were maintained in Dulbecco's modified Eagle's medium (DMEM, Gibco/BRL) that was supplemented with 100 U/mL penicillin-streptomycin (Gibco/BRL), 0.1 mM nonessential amino acid (NEAA, Gibco/BRL) and 10% fetal bovine serum (FBS) heat inactivated at 37° C. in 5% CO2. The HCV replicon cell lines were isolated from colonies as described in Lohman et al., Science 285:110-3 (1999). The culture medium for the replicon cells was additionally supplemented with 0.25 to 0.5 mg/mL of G418, unless specified otherwise. Compound DBPR110 and sofosbuvir were synthesized at the Institute of Biotechnology and Pharmaceutical Research at the National Health Research Institutes in Taiwan. Telaprevir (Lin et al., Antimicrob Agents Chemother, 50:1813-22 (2006)) was purchased from Acme Biosciences (Belmont, Calif.). The compounds were stored at −20° C. as 10 to 500 mM dimethyl sulfoxide (DMSO) stock solutions until the assay. IFN-α was purchased from Calbiochem (La Jolla, Calif.) and stored at −80° C.
(3) Inhibitory assay for HCV replicons. Cells were seeded at 1×10^4 (high-throughput screening assay) or 1×10^5 (regular assay) cells/well in 96- or 12-well plate, respectively, and incubated for 4 h. The medium was then aspirated and replaced with 0.1 (96-well plate) or 1 (12-well plate) mL of complete medium containing a single compound or combinations of compounds in serial concentration(s). The plates with compounds were incubated for 72 h and then assayed for luciferase expression (Promega). The EC50 of each compound was determined independently and used to determine the range of concentrations used for the combination experiments. All data are presented as the means±standard deviations (SD) from three independent experiments. The selectivity index (SI) was calculated as the ratio of the CC50 to the EC50.
(A replicon is a self-replicating genome or part of one, used to study replication in cells.)

Another data set is described as follows: Cytotoxicity assay (MTT). The data set is classed as cell-based. The settings on record: human. The procedure: (§1) (4) Cytotoxicity assay. The sensitivity of the cell lines to inhibitors was examined using a 3-(4,5-Dimethylthiazol-2-yl)-2,5-diphenyltetrazolium bromide (MTT) assay. Briefly, Huh-7.5 cells were plated at a density of 1×10^5 cells per well in 12-well plates containing 1 mL of culture medium for 4 h. Serial dilutions of the compounds or DMSO (negative control) were added, and the plates were incubated for an additional 72 h. The MTT reagent was then added to each well, and the plates were incubated for 3 h at 37° C. in a humidified 5% CO2 atmosphere before reading at a wavelength of 563 nm using an ELISA plate reader. All data are presented as the means +/−SD from four independent experiments.

The subject of another data set is HCV genotype 1b replicon. As to the kind of experiment: Inhibitor combination study (combination index, CalcuSyn). The settings on record: at the concentrations used in the combination experiments.
The subject of data set [2] is HCV genotype 1b replicon (Con1). The settings on record: HCV1b replicon; Gao et al., Nature 2010; cited from earlier work.
Data set [3] concerns HCV genotype 2a replicon (JFH1). The note with it: Gao et al., Nature 2010; cited from earlier work.
Another data set deals with Huh-7.5 cells. As to the kind of experiment: Cytotoxicity assay (MTT). The data set is classed as cell-based. The note with it: HCV-1b replicon cell lines; single agent. As to the method:
as §1

Where [4] appears, read: Hepatitis C virus, read-out: EC50.
The mark [5] stands for this setting: Hepatitis C virus, read-out: EC90.
The mark [6] stands for this setting: HCV-1b replicon cell lines, single agent, read-out: CC50.

Read-outs that look alike come from different tables or passages of the source. Bounds are passed on as bounds.

In the case of `CC(C)OC(=O)[C@H](C)N[P@](=O)(OC[C@H]1O[C@@H](n2ccc(=O)[nH]c2=O)[C@](C)(F)[C@@H]1O)Oc1ccccc1` [Sofosbuvir, sofosbuvir, reference compound], in data set [1] (setting [4]), the EC50 came out at 91.5 ± 18.3 nM. The EC90 in data set [1] (setting [5]) was determined as 323 ± 66.1 nM. The cytotoxic concentration (CC50) (commonly the concentration that lowers cell viability or growth by half) at 72 h in “Cytotoxicity assay (MTT)” (setting [6]) was > 5000 nM. For the same molecule, in the data set on HCV genotype 1b replicon, the cytotoxicity result is recorded as “No cytotoxicity was observed”.
Regarding `NC(=O)c1ncn([C@@H]2O[C@H](CO)[C@@H](O)[C@H]2O)n1` [Ribavirin, ribavirin, reference compound], the EC50 in data set [1] (setting [4]) was found to be 20500 ± 3500 nM. Moreover, in data set [1] (setting [5]), the EC90 was 95000 ± 20100 nM. Also, in the data set “Cytotoxicity assay (MTT)”, the CC50 at 72 h was > 200000 nM.
`CCC[C@H](NC(=O)[C@@H]1[C@H]2CCC[C@H]2CN1C(=O)[C@@H](NC(=O)[C@@H](NC(=O)c1cnccn1)C1CCCCC1)C(C)(C)C)C(=O)C(=O)NC1CC1` [Telaprevir, telaprevir, reference compound]: the EC50 in data set [1] (setting [4]) amounted to 301.6 ± 2.8 nM. Moreover, the EC90 in data set [1] (setting [5]) is 912 ± 75.4 nM. Moreover, in the data set “Cytotoxicity assay (MTT)” (setting [6]), the CC50 at 72 h is > 5000 nM. In the data set on HCV genotype 1b replicon, the cytotoxicity entry is given as “No cytotoxicity was observed”.
Take `CC(C)(C)NC(=O)N[C@H](C(=O)N1C[C@H]2[C@@H]([C@H]1C(=O)NC(CC1CCC1)C(=O)C(N)=O)C2(C)C)C(C)(C)C` (stereo partly drawn) [Boceprevir, boceprevir, reference compound]: the EC50 in data set [1] (setting [4]) was found to be 361 ± 19.9 nM. The EC90 in data set [1] (setting [5]) was 962 ± 21.5 nM. Also, in “Cytotoxicity assay (MTT)” (setting [6]), the cytotoxic concentration (CC50) at 72 h is > 5000 nM. In addition, in the data set on HCV genotype 1b replicon, the cytotoxicity result was “No cytotoxicity was observed”.
As to `COC(=O)N[C@H](C(=O)N1CCC[C@H]1c1nc(-c2ccc(-c3ccc(-c4c[nH]c([C@@H]5CCCN5C(=O)[C@@H](NC(=O)OC)C(C)C)n4)cc3)cc2)c[nH]1)C(C)C` [BMS-790052], the EC50 was 0.009 nM in data set [2] and 0.071 nM in data set [3].
For the molecule IFN-α, in data set [1], the EC50 is listed as 35.1±4.7 IU/mL and the EC90 is recorded as 327.0 ± 0.01 IU/mL. Also, the CC50 with Huh-7.5 cells is reported as >2,000 IU/mL. Further, in the data set on HCV genotype 1b replicon, the cytotoxicity entry is recorded as “No cytotoxicity was observed”.
